# pEC50: −log10 of the molar value.
# Tested on: HEK293T cells carrying the ATF4 luciferase reporter
# Test: ATF4-Luc assay, in vitro model of Vanishing Cell White Matter Disease (VWMD)
# Type: cell-based
# Settings: Homo sapiens, HEK-293T, 1 μg/mL tunicamycin, 7 hours, One Glo luminescence
# In short: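 Compound at 200 nM and tunicamycin at 1 μg/mL were given together for 7 h to HEK293T cells stably transduced with an ATF4 5′-UTR-driven firefly luciferase reporter. Read-out by luminescence, reported as EC50.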
row,Structure (SMILES),pEC50
1,"N#Cc1ccnc(C(=O)NC23CC(NC(=O)COc4ccc(Cl)c(F)c4)(C2)C3)c1 [Compound 182, N-{3-[2-(4-chloro-3-fluorophenoxy)acetamido]bicyclo[1.1.1]pentan-1-yl}-4-cyanopyridine-2-carboxamide]",6.60 to 7.30
2,"O=C(COc1ccc(Cl)c(Cl)c1)NC12CC(NC(=O)c3ccnc(CO)c3)(C1)C2 [Compound 715, N-{3-[2-(3,4-dichlorophenoxy)acetamido]bicyclo[1.1.1]pentan-1-yl}-2-(hydroxymethyl)pyridine-4-carboxamide]",5.70 to 6.00
3,"O=C(COc1ccc(Cl)c(F)c1)NC12CC(NC(=O)c3cc(CO)ccn3)(C1)C2 [Compound 178, N-{3-[2-(4-chloro-3-fluorophenoxy)acetamido]bicyclo[1.1.1]pentan-1-yl}-4-(hydroxymethyl)pyridine-2-carboxamide]",6.60 to 7.30
4,"Cc1ncc(C(=O)NC23CCC(NC(=O)COc4ccc(Cl)c(F)c4)(CC2)[C@@H](O)C3)nc1C [Compound 672, N-{(3S)-4-[2-(4-chloro-3-fluorophenoxy)acetamido]-3-hydroxybicyclo[2.2.2]octan-1-yl}-5,6-dimethylpyrazine-2-carboxamide]",6.60 to 7.30
5,"O=C(COc1ccc(Cl)c(F)c1)NC12CCC(NS(=O)(=O)c3ccc(C(F)(F)F)cc3)(CC1)[C@@H](O)C2 [Compound 663, 2-(4-chloro-3-fluorophenoxy)-N-[(3S)-3-hydroxy-4-{[4-(trifluoromethyl)benzene-1-sulfonyl]amino}bicyclo[2.2.2]octan-1-yl]acetamide]",6.60 to 7.30
6,"Cc1cncc(C(=O)NC23CCC(NC(=O)COc4ccc(Cl)c(F)c4)(CC2)C[C@@H]3O)n1 [Compound 734, N-{(2S)-4-[2-(4-chloro-3-fluorophenoxy)acetamido]-2-hydroxybicyclo[2.2.2]octan-1-yl}-6-methylpyrazine-2-carboxamide]",> 7.30
7,"O=C(COc1ccc(Cl)c(F)c1)NC12CC(NC(=O)c3cnc4ccccc4c3)(C1)C2 [Compound 587, N-{3-[2-(4-chloro-3-fluorophenoxy)acetamido]bicyclo[1.1.1]pentan-1-yl}quinoline-3-carboxamide]",6.60 to 7.30
8,"O=C(COc1ccc(Cl)c(F)c1)NC12CC(NC(=O)c3cnc4cccnn34)(C1)C2 [Compound 760, N-{3-[2-(4-chloro-3-fluorophenoxy)acetamido]bicyclo[1.1.1]pentan-1-yl}imidazo[1,2-b]pyridazine-3-carboxamide]",< 5.70
9,"O=C(COc1ccc(Cl)cc1)NC12CC(Nc3nnc(-c4ccc(Cl)cc4)o3)(C1)C2 [Compound 264, 2-(4-chlorophenoxy)-N-(3-{[5-(4-chlorophenyl)-1,3,4-oxadiazol-2-yl]amino}bicyclo[1.1.1]pentan-1-yl)acetamide]",6.00 to 6.60
10,"Cc1csc(C(=O)NC23CCC(NC(=O)COc4ccc(Cl)c(F)c4)(CC2)C(O)C3)c1 (stereo not drawn) [Compound 622, N-{4-[2-(4-chloro-3-fluorophenoxy)acetamido]-3-hydroxybicyclo[2.2.2]octan-1-yl}-4-methylthiophene-2-carboxamide]",> 7.30
11,"O=C(COc1ccc(Cl)c(F)c1)NC12CC(NC(=O)c3ccc(OC(F)F)cn3)(C1)C2 [Compound 152, N-{3-[2-(4-chloro-3-fluorophenoxy)acetamido]bicyclo[1.1.1]pentan-1-yl}-5-(difluoromethoxy)pyridine-2-carboxamide]",6.60 to 7.30
12,"Cc1cc(C(=O)NC23CC(NC(=O)COc4ccc(Cl)c(F)c4)(C2)C3)n(CC(C)(C)O)n1 [Compound 459, N-{3-[2-(4-chloro-3-fluorophenoxy)acetamido]bicyclo[1.1.1]pentan-1-yl}-1-(2-hydroxy-2-methylpropyl)-3-methyl-1H-pyrazole-5-carboxamide]",< 5.70
13,"O=C(COc1ccc(Cl)c(F)c1)NC12CC(NC(=O)c3cn[nH]c3)(C1)C2 [Compound 310, N-{3-[2-(4-chloro-3-fluorophenoxy)acetamido]bicyclo[1.1.1]pentan-1-yl}-1H-pyrazole-4-carboxamide]",< 5.70
14,"O=C(COc1ccc(Cl)c(F)c1)NC12CC(NC(=O)c3sccc3F)(C1)C2 [Compound 796, N-{3-[2-(4-chloro-3-fluorophenoxy)acetamido]bicyclo[1.1.1]pentan-1-yl}-3-fluorothiophene-2-carboxamide]",< 5.70
15,"O=C(COc1ccc(Cl)c(F)c1)NC12CC(NC(=O)c3ccnc(C(=O)NCCO)c3)(C1)C2 [Compound 288, N^4-{3-[2-(4-chloro-3-fluorophenoxy)acetamido]bicyclo[1.1.1]pentan-1-yl}-N^2-(2-hydroxyethyl)pyridine-2,4-dicarboxamide]",< 5.70
16,"O=C(COc1ccc(Cl)c(F)c1)NC12CCC(Nc3cnc(C(F)(F)F)cn3)(CC1)CC2 [Compound 100, 2-(4-chloro-3-fluorophenoxy)-N-(4-{[5-(trifluoromethyl)pyrazin-2-yl]amino}bicyclo[2.2.2]octan-1-yl)acetamide]",6.00 to 6.60
17,"Cc1onc(C(=O)NC23CC(NC(=O)COc4ccc(Cl)c(F)c4)(C2)C3)c1C [Compound 901, N-{3-[2-(4-chloro-3-fluorophenoxy)acetamido]bicyclo[1.1.1]pentan-1-yl}-4,5-dimethyl-1,2-oxazole-3-carboxamide]",< 5.70

row,Structure (SMILES),pEC50
1,"CN1CCc2c(cccc2NC23CC(NC(=O)COc4ccc(Cl)c(F)c4)(C2)C3)C1 [Compound 491, 2-(4-chloro-3-fluorophenoxy)-N-{3-[(2-methyl-1,2,3,4-tetrahydroisoquinolin-5-yl)amino]bicyclo[1.1.1]pentan-1-yl}acetamide]",< 5.70
2,"O=C(COc1ccc(Cl)c(F)c1)NC12CC(NC(=O)c3onc4c3CCCC4)(C1)C2 [Compound 854, N-{3-[2-(4-chloro-3-fluorophenoxy)acetamido]bicyclo[1.1.1]pentan-1-yl}-4,5,6,7-tetrahydro-2,1-benzoxazole-3-carboxamide]",< 5.70
3,"COCc1cncc(C(=O)NC23CC(NC(=O)COc4ccc(Cl)c(Cl)c4)(C2)C3)c1 [Compound 569, N-{3-[2-(3,4-dichlorophenoxy)acetamido]bicyclo[1.1.1]pentan-1-yl}-5-(methoxymethyl)pyridine-3-carboxamide]",> 7.30
4,"COc1nc(C)c(C(=O)NC23CC(NC(=O)COc4ccc(Cl)c(F)c4)(C2)C3)s1 [Compound 872, N-{3-[2-(4-chloro-3-fluorophenoxy)acetamido]bicyclo[1.1.1]pentan-1-yl}-2-methoxy-4-methyl-1,3-thiazole-5-carboxamide]",6.60 to 7.30
5,"CCc1noc(C(=O)NC23CCC(NC(=O)COc4ccc(Cl)c(F)c4)(CC2)C(O)C3)n1 (stereo not drawn) [Compound 567, N-{4-[2-(4-chloro-3-fluorophenoxy)acetamido]-3-hydroxybicyclo[2.2.2]octan-1-yl}-3-ethyl-1,2,4-oxadiazole-5-carboxamide]",6.60 to 7.30
6,"COc1cncc(C(=O)NC23CC(NC(=O)COc4ccc(Cl)c(F)c4)(C2)C3)c1 [Compound 790, N-{3-[2-(4-chloro-3-fluorophenoxy)acetamido]bicyclo[1.1.1]pentan-1-yl}-5-methoxypyridine-3-carboxamide]",6.60 to 7.30
7,"O=C(COc1ccc(Cl)c(F)c1)NC12CC(NC(=O)c3cnc(-c4ccc(Cl)c(F)c4)o3)(C1)C2 [Compound 105, N-{3-[2-(4-chloro-3-fluorophenoxy)acetamido]bicyclo[1.1.1]pentan-1-yl}-2-(4-chloro-3-fluorophenyl)-1,3-oxazole-5-carboxamide]",> 7.30
8,"O=C(COc1ccc(Cl)c(F)c1)NC12CC(NC(=O)c3cc(F)ccc3F)(C1)C2 [Compound 510, N-{3-[2-(4-chloro-3-fluorophenoxy)acetamido]bicyclo[1.1.1]pentan-1-yl}-2,5-difluorobenzamide]",6.00 to 6.60
9,"Cc1nc(C(=O)NC23CCC(NC(=O)COc4ccc(Cl)c(F)c4)(CC2)[C@@H](O)C3)n[nH]1 [Compound 673, N-{(3S)-4-[2-(4-chloro-3-fluorophenoxy)acetamido]-3-hydroxybicyclo[2.2.2]octan-1-yl}-5-methyl-1H-1,2,4-triazole-3-carboxamide]",6.60 to 7.30
10,"O=C(COc1ccc(Cl)c(F)c1)NC12CC(NC(=O)c3ccc(/C=C/C4CC4)cn3)(C1)C2 [Compound 283, N-{3-[2-(4-chloro-3-fluorophenoxy)acetamido]bicyclo[1.1.1]pentan-1-yl}-5-[(E)-2-cyclopropylethenyl]pyridine-2-carboxamide]",> 7.30
11,"O=C(COc1ccc(Cl)c(F)c1)NC12CC(NC(=O)c3cccc(-n4cnnc4)c3)(C1)C2 [Compound 902, N-{3-[2-(4-chloro-3-fluorophenoxy)acetamido]bicyclo[1.1.1]pentan-1-yl}-3-(4H-1,2,4-triazol-4-yl)benzamide]",< 5.70
12,"Cc1cnc(C(=O)NC23CC(NC(=O)COc4ccc(Cl)c(Cl)c4)(C2)C3)cn1 [Compound 131, N-{3-[2-(3,4-dichlorophenoxy)acetamido]bicyclo[1.1.1]pentan-1-yl}-5-methylpyrazine-2-carboxamide]",6.60 to 7.30
13,"Cc1ccc2nc(C(=O)NC34CC(NC(=O)COc5ccc(Cl)c(F)c5)(C3)C4)cn2c1 [Compound 787, N-{3-[2-(4-chloro-3-fluorophenoxy)acetamido]bicyclo[1.1.1]pentan-1-yl}-6-methylimidazo[1,2-a]pyridine-2-carboxamide]",< 5.70
14,"Cc1cc(C(=O)NC23CCC(NC(=O)COc4ccc(Cl)c(F)c4)(C2)C3)on1 [Compound 324, N-{4-[2-(4-chloro-3-fluorophenoxy)acetamido]bicyclo[2.1.1]hexan-1-yl}-3-methyl-1,2-oxazole-5-carboxamide]",6.00 to 6.60
15,"CCc1cc(C(=O)NC23CC(NC(=O)COc4ccc5c(c4)OC(F)(F)O5)(C2)C3)n(C)n1 [Compound 399, N-(3-{2-[(2,2-difluoro-2H-1,3-benzodioxol-5-yl)oxy]acetamido}bicyclo[1.1.1]pentan-1-yl)-3-ethyl-1-methyl-1H-pyrazole-5-carboxamide]",6.00 to 6.60
16,"Cc1cc2c(NC34CC(NC(=O)COc5ccc(F)c(F)c5)(C3)C4)nccn2n1 [Compound 436, 2-(3,4-difluorophenoxy)-N-{3-[(2-methylpyrazolo[1,5-a]pyrazin-4-yl)amino]bicyclo[1.1.1]pentan-1-yl}acetamide]",6.60 to 7.30

# From patent US10913727B2, “Modulators of the integrated stress pathway” (Calico Life Sciences LLC, priority 2016, dated 2021)
